≈ marks a conversion by molar mass, not a printed value.
Columns and labels:
Format in all cases: functional
Candida albicans [1] = experiment: microbe, parasite or virus in culture
Bacillus subtilis [2] = experiment: microbe, parasite or virus in culture
Escherichia coli [3] = experiment: microbe, parasite or virus in culture; conditions: read-out: IZ
Candida albicans [4] = experiment: Antifungal activity against Candida albicans at 300 ug/ml; conditions: read-out: IZ
Escherichia coli [5] = experiment: microbe, parasite or virus in culture
Staphylococcus aureus [6] = experiment: microbe, parasite or virus in culture; conditions: read-out: IZ
Pseudomonas aeruginosa [7] = experiment: microbe, parasite or virus in culture; conditions: read-out: IZ
Pseudomonas aeruginosa [8] = experiment: microbe, parasite or virus in culture
Staphylococcus aureus [9] = experiment: microbe, parasite or virus in culture
Bacillus subtilis [10] = experiment: microbe, parasite or virus in culture; conditions: read-out: IZ

| Compound | MIC (Candida albicans [1]) | MIC (Bacillus subtilis [2]) | zone of inhibition at 300 µg/mL (Escherichia coli [3]) | zone of inhibition at 300 µg/mL (Candida albicans [4]) | MIC (Escherichia coli [5]) | zone of inhibition at 300 µg/mL (Staphylococcus aureus [6]) | zone of inhibition at 300 µg/mL (Pseudomonas aeruginosa [7]) | MIC (Pseudomonas aeruginosa [8]) | MIC (Staphylococcus aureus [9]) | zone of inhibition at 300 µg/mL (Bacillus subtilis [10]) |
| --- | --- | --- | --- | --- | --- | --- | --- | --- | --- | --- |
| CCOc1ccc2nc(NCc3c([O-])on[n+]3-c3ccc(OC)cc3)sc2c1 | 200 µg/mL (≈ 502 µM) | 200 µg/mL (≈ 502 µM) | 13 mm | 14 mm | 300 µg/mL (≈ 753 µM) | 14 mm | 13 mm | 200 µg/mL (≈ 502 µM) | 200 µg/mL (≈ 502 µM) | 13 mm |
| COc1ccc(-[n+]2noc([O-])c2CNc2nc3ccc(Cl)cc3s2)cc1 | 100 µg/mL (≈ 257 µM) | 200 µg/mL (≈ 514 µM) | 13 mm | 16 mm | 200 µg/mL (≈ 514 µM) | 14 mm | 13 mm | 200 µg/mL (≈ 514 µM) | 200 µg/mL (≈ 514 µM) | 15 mm |
| COc1ccc(-[n+]2noc([O-])c2CNc2ccc(Cl)cc2)cc1 | 80 µg/mL (≈ 241 µM) | 200 µg/mL (≈ 603 µM) | 13 mm | 18 mm | 300 µg/mL (≈ 904 µM) | 12 mm | 13 mm | 300 µg/mL (≈ 904 µM) | 200 µg/mL (≈ 603 µM) | 13 mm |
| COc1ccc(-[n+]2noc([O-])c2CNc2ccccc2[N+](=O)[O-])cc1 | 200 µg/mL (≈ 584 µM) | 200 µg/mL (≈ 584 µM) | 14 mm | 14 mm | 200 µg/mL (≈ 584 µM) | 11 mm | 13 mm | 200 µg/mL (≈ 584 µM) | 300 µg/mL (≈ 876 µM) | 13 mm |
| COc1ccc(-[n+]2noc([O-])c2Cn2c(-c3ccc([N+](=O)[O-])cc3)nc3ccccc32)cc1 | 200 µg/mL (≈ 451 µM) | 300 µg/mL (≈ 677 µM) | 18 mm | 12 mm | 60 µg/mL (≈ 135 µM) | 10 mm | 12 mm | 300 µg/mL (≈ 677 µM) | 500 µg/mL (≈ 1130 µM) | 12 mm |
| COc1ccc(-c2nc3ccccc3n2Cc2c([O-])on[n+]2-c2ccc(OC)cc2)cc1 | 200 µg/mL (≈ 467 µM) | 200 µg/mL (≈ 467 µM) | 15 mm | 14 mm | 300 µg/mL (≈ 700 µM) | 11 mm | 12 mm | 300 µg/mL (≈ 700 µM) | 300 µg/mL (≈ 700 µM) | 12 mm |
| COc1ccc(-[n+]2noc([O-])c2Cn2c(-c3ccc(Cl)cc3Cl)nc3ccccc32)cc1 | 200 µg/mL (≈ 428 µM) | 500 µg/mL (≈ 1070 µM) | 12 mm | 16 mm | 300 µg/mL (≈ 642 µM) | 10 mm | 12 mm | 300 µg/mL (≈ 642 µM) | 500 µg/mL (≈ 1070 µM) | 10 mm |
| COc1ccc(-[n+]2noc([O-])c2CNc2ccc(C)cc2)cc1 | 200 µg/mL (≈ 642 µM) | 200 µg/mL (≈ 642 µM) | 13 mm | 16 mm | 200 µg/mL (≈ 642 µM) | 13 mm | 13 mm | 200 µg/mL (≈ 642 µM) | 200 µg/mL (≈ 642 µM) | 14 mm |
| COc1ccc(-[n+]2noc([O-])c2CNc2ccccc2Cl)cc1 | 300 µg/mL (≈ 904 µM) | 300 µg/mL (≈ 904 µM) | 12 mm | 12 mm | 300 µg/mL (≈ 904 µM) | 12 mm | 10 mm | 500 µg/mL (≈ 1510 µM) | 300 µg/mL (≈ 904 µM) | 12 mm |
| CN[C@@H]1[C@H](O[C@H]2[C@H](O[C@H]3[C@H](O)[C@@H](O)[C@H](N=C(N)N)[C@@H](O)[C@@H]3N=C(N)N)O[C@@H](C)[C@]2(O)C=O)O[C@@H](CO)[C@H](O)[C@H]1O [STREPTOMYCIN] |  | 0.25 µg/mL (≈ 0.43 µM) | 28 mm |  | 1 µg/mL (≈ 1.72 µM) | 40 mm | 34 mm | 0.5 µg/mL (≈ 0.86 µM) | 0.125 µg/mL (≈ 0.215 µM) | 40 mm |
| COc1ccc(-[n+]2noc([O-])c2CNc2nc3ccc(C#N)cc3s2)cc1 | 100 µg/mL (≈ 264 µM) | 60 µg/mL (≈ 158 µM) | 12 mm | 17 mm | 300 µg/mL (≈ 791 µM) | 16 mm | 10 mm | 500 µg/mL (≈ 1320 µM) | 80 µg/mL (≈ 211 µM) | 17 mm |
| COc1ccc(-[n+]2noc([O-])c2CNc2nc3ccc(Br)cc3s2)cc1 | 80 µg/mL (≈ 185 µM) | 100 µg/mL (≈ 231 µM) | 11 mm | 21 mm | 300 µg/mL (≈ 692 µM) | 18 mm | 12 mm | 200 µg/mL (≈ 462 µM) | 100 µg/mL (≈ 231 µM) | 15 mm |
| COc1ccc(NCc2c([O-])on[n+]2-c2ccc(OC)cc2)cc1 | 200 µg/mL (≈ 611 µM) | 100 µg/mL (≈ 305 µM) | 12 mm | 20 mm | 200 µg/mL (≈ 611 µM) | 16 mm | 14 mm | 100 µg/mL (≈ 305 µM) | 80 µg/mL (≈ 244 µM) | 18 mm |
| COc1ccc(-[n+]2noc([O-])c2CNc2nc3cc([N+](=O)[O-])ccc3s2)cc1 | 200 µg/mL (≈ 501 µM) | 500 µg/mL (≈ 1250 µM) | 12 mm | 14 mm | 300 µg/mL (≈ 751 µM) | 10 mm | 10 mm | 500 µg/mL (≈ 1250 µM) | 500 µg/mL (≈ 1250 µM) | 10 mm |
| COc1ccc(-[n+]2noc([O-])c2Cn2c(-c3ccccc3Br)nc3ccccc32)cc1 | 200 µg/mL (≈ 419 µM) | 300 µg/mL (≈ 629 µM) | 14 mm | 13 mm | 200 µg/mL (≈ 419 µM) | 10 mm | 13 mm | 200 µg/mL (≈ 419 µM) | 500 µg/mL (≈ 1050 µM) | 12 mm |
| OC(Cn1cncn1)(Cn1cncn1)c1ccc(F)cc1F [FLUCONAZOLE] | 100 µg/mL (≈ 327 µM) |  |  | 25 mm |  |  |  |  |  |  |
| COc1ccc(-[n+]2noc([O-])c2CNc2nc3ccc(F)cc3s2)cc1 | 200 µg/mL (≈ 537 µM) | 200 µg/mL (≈ 537 µM) | 12 mm | 13 mm | 300 µg/mL (≈ 806 µM) | 12 mm | 10 mm | 500 µg/mL (≈ 1340 µM) | 300 µg/mL (≈ 806 µM) | 12 mm |
| COc1ccc(-[n+]2noc([O-])c2CNc2ccc([N+](=O)[O-])cc2)cc1 | 200 µg/mL (≈ 584 µM) | 200 µg/mL (≈ 584 µM) | 14 mm | 14 mm | 200 µg/mL (≈ 584 µM) | 10 mm | 14 mm | 200 µg/mL (≈ 584 µM) | 500 µg/mL (≈ 1460 µM) | 12 mm |
| COc1ccc(-[n+]2noc([O-])c2Cn2c(-c3ccc(Cl)cc3)nc3ccccc32)cc1 | 200 µg/mL (≈ 462 µM) | 300 µg/mL (≈ 693 µM) | 15 mm | 14 mm | 200 µg/mL (≈ 462 µM) | 12 mm | 10 mm | 500 µg/mL (≈ 1160 µM) | 300 µg/mL (≈ 693 µM) | 12 mm |
| COc1ccc(-[n+]2noc([O-])c2CNc2nc3ccc(C)cc3s2)cc1 | 100 µg/mL (≈ 271 µM) | 60 µg/mL (≈ 163 µM) | 12 mm | 17 mm | 300 µg/mL (≈ 814 µM) | 15 mm | 10 mm | 500 µg/mL (≈ 1360 µM) | 200 µg/mL (≈ 543 µM) | 18 mm |
| CC1(C)S[C@@H]2[C@H](NC(=O)[C@H](N)c3ccccc3)C(=O)N2[C@H]1C(=O)O [AMPICILLIN] |  | 100 µg/mL (≈ 286 µM) | 31 mm |  | 100 µg/mL (≈ 286 µM) | 30 mm | 29 mm | 100 µg/mL (≈ 286 µM) | 250 µg/mL (≈ 715 µM) | 26 mm |
| COc1ccc(-[n+]2noc([O-])c2Cn2c(-c3ccccc3[N+](=O)[O-])nc3ccccc32)cc1 | 200 µg/mL (≈ 451 µM) | 300 µg/mL (≈ 677 µM) | 14 mm | 14 mm | 200 µg/mL (≈ 451 µM) | 21 mm | 10 mm | 500 µg/mL (≈ 1130 µM) | 40 µg/mL (≈ 90.2 µM) | 12 mm |
| COc1ccc(-[n+]2noc([O-])c2Cn2c(-c3ccc(Cl)c(Cl)c3)nc3ccccc32)cc1 | 200 µg/mL (≈ 428 µM) | 200 µg/mL (≈ 428 µM) | 13 mm | 15 mm | 300 µg/mL (≈ 642 µM) | 11 mm | 14 mm | 300 µg/mL (≈ 642 µM) | 300 µg/mL (≈ 642 µM) | 12 mm |
| CC1(C)S[C@@H]2[C@H](NC(=O)Cc3ccccc3)C(=O)N2[C@H]1C(=O)O [PENICILLIN G] |  | 0.25 µg/mL (≈ 0.748 µM) | 30 mm |  | 0.5 µg/mL (≈ 1.5 µM) | 45 mm | 38 mm | 0.25 µg/mL (≈ 0.748 µM) | 0.125 µg/mL (≈ 0.374 µM) | 35 mm |
| COc1ccc(-[n+]2noc([O-])c2CNc2nc3c([N+](=O)[O-])cccc3s2)cc1 | 20 µg/mL (≈ 50.1 µM) | 20 µg/mL (≈ 50.1 µM) | 23 mm | 32 mm | 40 µg/mL (≈ 100 µM) | 27 mm | 18 mm | 100 µg/mL (≈ 250 µM) | 20 µg/mL (≈ 50.1 µM) | 30 mm |
| CCOc1ccc(NCc2c([O-])on[n+]2-c2ccc(OC)cc2)cc1 | 200 µg/mL (≈ 586 µM) | 80 µg/mL (≈ 234 µM) | 13 mm | 16 mm | 200 µg/mL (≈ 586 µM) | 17 mm | 15 mm | 100 µg/mL (≈ 293 µM) | 40 µg/mL (≈ 117 µM) | 16 mm |
| O=C(O)c1cn(C2CC2)c2cc(N3CCNCC3)c(F)cc2c1=O [CIPROFLOXACIN] |  |  |  |  | 25 µg/mL (≈ 75.4 µM) | 30 mm | 23 mm |  | 50 µg/mL (≈ 151 µM) | 31 mm |
